Laboratory results reported in PMC12555100, “Dextromethorphan Versus Dextrorphan: A Quantitative Comparison of Antitussive Potency Following Separate Administration of Metabolite” (Journal of Clinical Pharmacology, 2025).
Converted amounts (≈) assume the structure as drawn. “And” between values parts separate entries of the source, which are not always exact repeats. Equal values may be shown once. “Also recorded” adds a separate entry of the source. Read-outs that look alike come from different tables or passages of the source.

How the values were obtained:
[1] = system: Caco‐2 monolayers; details: cited from earlier work
[2] = system: cough response to citric acid challenge; experiment: PK-PD effect compartment link model of cough response; assay type: in vivo, human; details: for Between‐subject variability of ke0: PKPD model
Method: Pharmacokinetic/pharmacodynamic analysis (PKPD) of DEX and DOR was conducted using non‐linear mixed effects modelling with Monolix software, 2024R1 (Lixoft SAS, Antony, France). The analysis followed a sequential approach, where the PK parameters of both compounds were estimated initially, and then these were used alongside the cough data to build the PK/PD model. The model components are described below:
The cough response (number of coughs) of the placebo arm of the study was described by the following equation that has been reported in a previous study[27] with some minor modifications: EPlacebo=Baselinecough×scale×k×e^−k×t in which EPlacebo is the placebo effect, BaselineCough is the number of coughs at time (t) zero (before administration of any of the drugs or placebo), scale is the constant of the magnitude of the cough response, and k is the first‐order rate constant for nonlinear suppression of the cough response and return to the baseline. The distribution of all parameters was assumed to be log normal. A constant error model was used to describe intra‐individual variability.
An effect compartment model in which ke0 (DEX) and ke0 (DOR) are the effect‐site equilibration rate constants for DEX and DOR, respectively, was used to link the plasma concentrations of DEX and DOR to the combined effect of the two moieties at the same receptor. This combined effect is described by the following equation: E=EPlacebo×1−Imax×CeDEX/IC50+CeDOR×Pot/IC50^n/1+CeDEX/IC50+CeDOR×Pot/IC50^n in which I max is the maximum antitussive effect, IC50 the concentration of drugs that results in half of the maximum effect, Pot is the relative potency of DOR to DEX and CeDEX and CeDOR are the effect compartment concentrations of DEX and DOR, respectively.[23] Log‐normal distribution model was used to describe the inter‐individual variability of the model parameters and intra‐individual variability was described by a constant error model.

[3] = fixed in the model for DEX and directly administered (preformed) DOR, cited from earlier work
[4] = system: cough response to citric acid challenge; experiment: Citric acid cough challenge test, model-independent analysis of antitussive effect; assay type: in vivo, human; details: for Emax, maximum percentage of cough number reduction, mean: mean of 23 healthy volunteers, change relative to baseline; for Emax, maximum percentage of cough number reduction, mean / Emax, maximum percentage of cough number reduction, median: after 40.5 mg dextromethorphan hydrobromide or 44.6 mg dextrorphan-D-tartrate; for AUEC0‐24 h, mean / AUEC0‐24 h, median: area under percent reduction in cough number vs time 0-24 h; for AUEC0‐24 h, mean / TEmax, time of maximum percentage of reduction in cough number, mean / AUEC0‐24 h, median / TEmax, time of maximum percentage of reduction in cough number, median: healthy volunteers; for TEmax, time of maximum percentage of reduction in cough number, mean / TEmax, time of maximum percentage of reduction in cough number, median: after DEX or DOR administration; for Emax, maximum percentage of cough number reduction, median: median of 23 healthy volunteers; for Emax and TEmax compared between DEX, DOR and placebo arms: model-independent analysis; for Antitussive effect (AUEC0‐24 h) compared between DEX, DOR and placebo arms: model-independent pairwise analysis, Friedman test with Dunn's multiple comparison
From the text: The clinical trial has been performed according to the Declaration of Helsinki and was approved by the North Sheffield Research and Ethics Committee (approval number NS98/183). All participants enrolled into the clinical trial have given informed consent. Data were collected from twenty‐three healthy non‐smoker volunteers (12 male) aged 19‐51 years who took part in a double‐blind randomized placebo controlled cross‐over study. […] The exclusion criteria were respiratory tract infection or acute cough within the last 4 weeks, receiving any medication within previous 2 weeks, and any medical condition which may interfere with the study. Preceding the visit day, the volunteer was asked to fast for 8 h, abstain from alcohol, and abstain from caffeinated drinks throughout the study day. Written informed consent was obtained from all volunteers. The study was approved by the […] Research and Ethics Committee. Subjects' cough response to citric acid challenge test was studied on three separate occasions (separated at least 7 days apart) following administration of (i) placebo; (ii) 40.5 mg dextromethorphan hydrobromide; (iii) 44.6 mg of dextrorphan‐D‐tartrate. The order of treatments (placebo, DEX, and DOR) was randomized across participants using a balanced Latin square design to ensure equal distribution of sequence effects. Blood samples for PK analysis were taken periodically (at 0, 1, 2, 3, 4, 5, 6, 8, 10, 12, and 24 h post administration of DEX and DOR).
Details of the cough challenge test were described previously.[24] In summary, cough was produced by five inhalations of 3 mL 10% w/v citric acid (placed in a nebulizing chamber) over 5 min. Prior to randomization, all volunteers underwent a two‐part screening process. Volunteers who coughed between 7 and 14 times following five inhalations of a 10% citric acid solution at the first visit, were considered eligible for further screening. The second visit evaluated both interday and intraday cough response consistency. The acceptable level of variability in cough frequency was established as no more than 20% between separate days and within a single day across three separate measurements. The frequency of cough response was measured at baseline (prior to placebo or drug administration, t = −1 h) and at regular intervals up to 24 h. Cough measurements were obtained at the same time points as blood sampling.
The percent of change in cough number relative to the baseline (t = 0) was plotted against time and the maximum reduction in cough response (Emax) and its […] (TEmax) were determined. The area under the percent of reduction in cough number against time between 0 until 24 h (AUEC0‐24 h) was calculated using the trapezoidal rule. The correlation between AUEC0‐24 h and area under plasma concentration time between zero and 24 h (AUC0‐24 h) of DEX, (endogenously) formed DOR and directly administered DOR was statistically examined using Spearman rank correlation test. The Friedman test (followed by Dunn's multiple comparison) was used to compare the AUC values of DEX and DOR, as well as the AUEC values, between the different arms of the study.

[5] = cited from earlier work
[6] = system: antitussive effect (cough); design: method as in PMID 12848776; details: cited from earlier work
[7] = animal study; cited from earlier work
[8] = population estimate, common parameter of the combined DEX+DOR effect model

Row | Compound | Permeability, DEX compared with DOR [1] | Between‐subject variability of ke0 [2] | ke0, transfer rate constant from the central to the effect compartment ([2]; population estimate) | ka, first-order absorption rate constant (fixed) [3] | Emax, maximum percentage of cough number reduction, mean [4] | AUEC0‐24 h, mean [4] | TEmax, time of maximum percentage of reduction in cough number, mean [4] | Emax, maximum percentage of cough number reduction, median [4] | AUEC0‐24 h, median [4] | TEmax, time of maximum percentage of reduction in cough number, median [4] | Emax and TEmax compared between DEX, DOR and placebo arms [4] | Antitussive effect (AUEC0‐24 h) compared between DEX, DOR and placebo arms [4] | also measured
1 | COc1ccc2c(c1)[C@]13CCCC[C@@H]1[C@H](C2)N(C)CC3 [DEX, dextromethorphan] | comparable permeability | 176 CV% | 0.08 h⁻¹ | 2.6 h^−1 and 2.6 (fixed) h^−1 | −46% | −299 %hr | 3.9 h | −44% | −286 %hr | 3.0 h | no significant differences | no significant difference | –
2 | CN1CC[C@@]23CCCC[C@@H]2[C@@H]1Cc1ccc(O)cc13 [DOR, dextrorphan] | comparable permeability | 171 CV% | 0.02 h⁻¹ | 2.6 (fixed) h^−1 | −45% | −189 %hr | 6.3 h | −46% | −170 %hr | 5.5 h | no significant differences | no significant difference; also recorded: did not reveal a statistically significant difference; also recorded: failed to show any statistical difference | Water solubility [5]: > 10000 µg/mL; Maximum cough inhibition (Imax) ([2]; model-based estimate, as percent): 23%; Relative potency of DOR to DEX ([2]; population estimate, as fraction): 0.26; Imax, the maximum antitussive effect (fraction of the baseline) [2, 8]: 0.23; N, Hill coefficient [2, 8]: 2.8; ka, first-order absorption rate constant (fixed) ([3]; listed as preformed DOR): 2.6 h⁻¹; Relative potency of DOR compared to DEX ([6]; modelling of quinidine interaction study, no separate DOR arm): 38%; IC50 ([6]; total concentration of DOR (conjugated with glucuronic acid and unconjugated)): 3.2 ng/mL (≈ 0.0124 µM); Antitussive activity [7]: good antitussive activity comparable to that of DEX; Tolerability compared with DEX [7]: better tolerability; Toxicity compared with DEX [7]: lower toxicity
